Data taken from patent US12077503B2, “Substituted cyclic amides and their use as herbicides” (FMC CORPORATION, priority 2015, dated 2024).

Experiments:
Assay in all cases: Test C preemergence
Assay type in all cases: in vivo
[1] = test system: Galium (catchweed bedstraw, Galium aparine); conditions: for Plant response rating, Galium: scale 0 to 100, 0 no effect, 100 complete control
Outline: (§1)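 Greenhouse test: seeds in a loam and sand blend treated preemergence, or seedlings at the 1- to 4-leaf stage (2 to 18 cm) in a peat, vermiculite and limestone mix treated postemergence, with test chemicals in a surfactant-containing non-phytotoxic solvent. Scored by eye at 13 to 15 d relative to controls, 0 (no effect) to 100 (complete control).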

[2] = test system: barnyardgrass (Echinochloa crus-galli); conditions: for Plant response rating, Barnyardgrass: scale 0 to 100, 0 no effect, 100 complete control
Outline: as §1

[3] = test system: blackgrass (Alopecurus myosuroides); conditions: for Plant response rating, Blackgrass: scale 0 to 100, 0 no effect, 100 complete control
Outline: as §1

corn (Zea mays) = conditions: for Plant response rating, Corn: scale 0 to 100, 0 no effect, 100 complete control
Outline: as §1

[4] = test system: crabgrass, large (large crabgrass, Digitaria sanguinalis); conditions: for Plant response rating, Crabgrass, Large: scale 0 to 100, 0 no effect, 100 complete control
Outline: as §1

[5] = test system: foxtail, giant (giant foxtail, Setaria faberii); conditions: for Plant response rating, Foxtail, Giant: scale 0 to 100, 0 no effect, 100 complete control
Outline: as §1

[6] = test system: johnsongrass (Sorghum halepense); conditions: for Plant response rating, Johnsongrass: scale 0 to 100, 0 no effect, 100 complete control
Outline: as §1

[7] = test system: lambsquarters (Chenopodium album); conditions: for Plant response rating, Lambsquarters: scale 0 to 100, 0 no effect, 100 complete control
Outline: as §1

[8] = test system: morningglory (Ipomoea coccinea); conditions: for Plant response rating, Morningglory: scale 0 to 100, 0 no effect, 100 complete control
Outline: as §1

[9] = test system: nutsedge, yellow (yellow nutsedge, Cyperus esculentus); conditions: for Plant response rating, Nutsedge, Yellow: scale 0 to 100, 0 no effect, 100 complete control
Outline: as §1

[10] = test system: oilseed rape (Brassica napus); conditions: for Plant response rating, Oilseed Rape: scale 0 to 100, 0 no effect, 100 complete control
Outline: as §1

[11] = test system: pigweed (Amaranthus retroflexus); conditions: for Plant response rating, Pigweed: scale 0 to 100, 0 no effect, 100 complete control
Outline: as §1

[12] = test system: ragweed (common ragweed, Ambrosia elatior); conditions: for Plant response rating, Ragweed: scale 0 to 100, 0 no effect, 100 complete control
Outline: as §1

[13] = test system: ryegrass, Italian (Italian ryegrass, Lolium multiflorum); conditions: for Plant response rating, Ryegrass, Italian: scale 0 to 100, 0 no effect, 100 complete control
Outline: as §1

soybean (Glycine max) = conditions: scale 0 to 100, 0 no effect, 100 complete control
Outline: as §1

[14] = test system: velvetleaf (Abutilon theophrasti); conditions: for Plant response rating, Velvetleaf: scale 0 to 100, 0 no effect, 100 complete control
Outline: as §1

[15] = test system: waterhemp (common waterhemp, Amaranthus rudis); conditions: for Plant response rating, Waterhemp: scale 0 to 100, 0 no effect, 100 complete control
Outline: as §1

[16] = test system: wheat (winter wheat, Triticum aestivum); conditions: for Plant response rating, Wheat: scale 0 to 100, 0 no effect, 100 complete control
Outline: as §1

[17] = 31 g ai/ha, 0 is no effect, 100 is complete control

CC(C)Oc1cccc(C2CN(C)C(=O)C2C(=O)Nc2ccccc2S(C)(=O)=O)c1 (stereo not shown) [Compound 653]
60: Plant response rating, Blackgrass ([3]; 125 g ai/ha) | Plant response rating, Lambsquarters ([7]; 250 g ai/ha) | Plant response rating, Ragweed ([12]; 250 g ai/ha)
5: Plant response rating, Ragweed ([12]; 62 g ai/ha) | Plant response rating, Soybean (soybean (Glycine max); 125 g ai/ha)
35: Plant response rating, Lambsquarters ([7]; 62 g ai/ha) | Plant response rating, Ragweed ([12]; 125 g ai/ha) | Plant response rating, Velvetleaf ([14]; 125 g ai/ha) | Plant response rating (scale of 0 to 100), Waterhemp [15, 17]
85: Plant response rating (scale of 0 to 100), Foxtail, Giant [5, 17] | Plant response rating, Oilseed Rape ([10]; 250 g ai/ha) | Plant response rating, Pigweed ([11]; 250 g ai/ha)
20: Plant response rating (scale of 0 to 100), Barnyardgrass [2, 17] | Plant response rating, Corn (corn (Zea mays); 250 g ai/ha) | Plant response rating, Pigweed ([11]; 62 g ai/ha) | Plant response rating, Ryegrass, Italian ([13]; 125 g ai/ha)
90: Plant response rating, Barnyardgrass ([2]; 250 g ai/ha) | Plant response rating, Blackgrass ([3]; 250 g ai/ha) | Plant response rating (scale of 0 to 100), Crabgrass, Large [4, 17]
40: Plant response rating, Galium ([1]; 250 g ai/ha) | Plant response rating, Johnsongrass ([6]; 125 g ai/ha) | Plant response rating, Soybean (soybean (Glycine max); 250 g ai/ha) | Plant response rating, Wheat ([16]; 250 g ai/ha)
10: Plant response rating, Ryegrass, Italian ([13]; 62 g ai/ha)
0: Plant response rating (scale of 0 to 100), Galium [1, 17] | Plant response rating (scale of 0 to 100), Blackgrass [3, 17] | Plant response rating (scale of 0 to 100), Corn (corn (Zea mays); [17]) | Plant response rating, Corn (corn (Zea mays); 62 g ai/ha) | Plant response rating, Corn (corn (Zea mays); 125 g ai/ha) | Plant response rating (scale of 0 to 100), Johnsongrass [6, 17] | Plant response rating, Johnsongrass ([6]; 62 g ai/ha) | Plant response rating (scale of 0 to 100), Morningglory [8, 17] | Plant response rating, Morningglory ([8]; 62 g ai/ha) | Plant response rating, Morningglory ([8]; 125 g ai/ha) | Plant response rating, Morningglory ([8]; 250 g ai/ha) | Plant response rating (scale of 0 to 100), Nutsedge, Yellow [9, 17] | Plant response rating, Nutsedge, Yellow ([9]; 62 g ai/ha) | Plant response rating, Nutsedge, Yellow ([9]; 125 g ai/ha) | Plant response rating (scale of 0 to 100), Oilseed Rape [10, 17] | Plant response rating, Oilseed Rape ([10]; 62 g ai/ha) | Plant response rating (scale of 0 to 100), Ragweed [12, 17] | Plant response rating (scale of 0 to 100), Ryegrass, Italian [13, 17] | Plant response rating (scale of 0 to 100), Velvetleaf [14, 17] | Plant response rating (scale of 0 to 100), Wheat [16, 17] | Plant response rating, Wheat ([16]; 62 g ai/ha) | Plant response rating, Wheat ([16]; 125 g ai/ha)
50: Plant response rating, Lambsquarters ([7]; 125 g ai/ha) | Plant response rating, Pigweed ([11]; 125 g ai/ha) | Plant response rating, Velvetleaf ([14]; 250 g ai/ha) | Plant response rating, Waterhemp ([15]; 125 g ai/ha)
55: Plant response rating, Barnyardgrass ([2]; 62 g ai/ha) | Plant response rating, Johnsongrass ([6]; 250 g ai/ha)
95: Plant response rating, Crabgrass, Large ([4]; 62 g ai/ha) | Plant response rating, Foxtail, Giant ([5]; 62 g ai/ha) | Plant response rating, Foxtail, Giant ([5]; 125 g ai/ha)
15: Plant response rating, Blackgrass ([3]; 62 g ai/ha) | Plant response rating (scale of 0 to 100), Lambsquarters [7, 17]
30: Plant response rating, Galium ([1]; 125 g ai/ha) | Plant response rating, Oilseed Rape ([10]; 125 g ai/ha) | Plant response rating (scale of 0 to 100), Pigweed [11, 17] | Plant response rating, Waterhemp ([15]; 62 g ai/ha)
80: Plant response rating, Barnyardgrass ([2]; 125 g ai/ha) | Plant response rating, Waterhemp ([15]; 250 g ai/ha)
25: Plant response rating, Nutsedge, Yellow ([9]; 250 g ai/ha) | Plant response rating, Ryegrass, Italian ([13]; 250 g ai/ha) | Plant response rating, Velvetleaf ([14]; 62 g ai/ha)
100: Plant response rating, Galium ([1]; 62 g ai/ha) | Plant response rating, Crabgrass, Large ([4]; 125 g ai/ha) | Plant response rating, Crabgrass, Large ([4]; 250 g ai/ha) | Plant response rating, Foxtail, Giant ([5]; 250 g ai/ha)
